The source of these data is patent US11530207B2, “Compounds for the treatment of cancer” (SKYHAWK THERAPEUTICS, INC., priority 2018, dated 2022).

Molecules are shown by their SMILES.

The subject of this assay is A673 cells. Briefly: Dose-response cell proliferation assay in A673 cells (crystal violet). The following applies: Homo sapiens, A673 cells, 10,000 cells per well, 72 h treatment. The class given is cell-based. Here is the method:
Small molecule splicing modulators were tested in a dose-response assay using A673 cells. A673 cells were first plated in 96-well plastic tissue culture plates (10,000 cells per well). The cells were treated with vehicle alone (DMSO), or increasing concentrations of SMSM compounds for 72 h. Following treatment, cell proliferation was determined using a crystal violet assay. The relative cell proliferation at each concentration was determined.
With `CNC(=O)/C=C/c1cc(O)c(-c2ccc(N3C[C@H]4CNC[C@H]4C3)nn2)cc1F` [SMSM 1, (E)-3-(2-fluoro-4-(6-((3aR,6aS)-hexahydropyrrolo[3,4-c]pyrrol-2(1H)-yl)pyridazin-3-yl)-5-hydroxyphenyl)-N-methylacrylamide], the IC50 was 91 nM. For `CNC(=O)/C=C/c1ccc(-c2ccc(N3C[C@H]4CNC[C@H]4C3)nn2)c(O)c1` [SMSM 2, (E)-3-(4-(6-((3aR,6aS)-hexahydropyrrolo[3,4-c]pyrrol-2(1H)-yl)pyridazin-3-yl)-3-hydroxyphenyl)-N-methylacrylamide] the value was 9 nM; for `CNC(=O)/C=C/c1ccc(-c2ccc(N(C)[C@@H]3C[C@H]4CC[C@@H](C3)N4)nn2)c(O)c1` [SMSM 3, (E)-3-(4-(6-(((1R,3s,5S)-8-azabicyclo[3.2.1]octan-3-yl)(methyl)amino)pyridazin-3-yl)-3-hydroxyphenyl)-N-methylacrylamide], 8.3 nM; for `CNC(=O)/C=C/c1ccc(-c2ccc(O[C@@H]3C[C@H]4CC[C@@H](C3)N4)nn2)c(O)c1` [SMSM 4, (E)-3-(4-(6-(((1R,3s,5S)-8-azabicyclo[3.2.1]octan-3-yl)oxy)pyridazin-3-yl)-3-hydroxyphenyl)-N-methylacrylamide], 7 nM. Turning to `CN(C(=O)/C=C/c1ccc(-c2ccc(N(C)[C@@H]3C[C@H]4CCC[C@@H](C3)N4)nn2)c(O)c1)C1CC1` [SMSM 5, (E)-3-(4-(6-(((1R,3s,5S)-9-azabicyclo[3.3.1]nonan-3-yl)(methyl)amino)pyridazin-3-yl)-3-hydroxyphenyl)-N-cyclopropyl-N-methylacrylamide], it took 554 nM to reach half-maximal inhibition (IC50). In turn, `CNC(=O)/C=C/c1ccc(-c2ccc(N(C)[C@@H]3C[C@H]4CCC[C@@H](C3)N4)nn2)c(O)c1` [SMSM 6, (E)-3-(4-(6-(((1R,3s,5S)-9-azabicyclo[3.3.1]nonan-3-yl)(methyl)amino)pyridazin-3-yl)-3-hydroxyphenyl)-N-methylacrylamide] registered an IC50 of 3120 nM.

As for `CN(C)C(=O)/C=C/c1ccc(-c2ccc(N(C)[C@@H]3C[C@H]4CCC[C@@H](C3)N4)nn2)c(O)c1` [SMSM 7, (E)-3-(4-(6-(((1R,3s,5S)-9-azabicyclo[3.3.1]nonan-3-yl)(methyl)amino)pyridazin-3-yl)-3-hydroxyphenyl)-N,N-dimethylacrylamide], the IC50 came out at 3.7 nM. On to `CNC(=O)/C=C/c1cc(O)c(-c2ccc(N(C)[C@@H]3C[C@H]4CCC[C@@H](C3)N4)nn2)cc1F` [SMSM 8, (E)-3-(4-(6-(((1R,3s,5S)-9-azabicyclo[3.3.1]nonan-3-yl)(methyl)amino)pyridazin-3-yl)-2-fluoro-5-hydroxyphenyl)-N-methylacrylamide], for which the IC50 came to 20 nM. Consider `CNC(=O)/C=C/c1cc(O)c(-c2ccc(N(C)[C@H]3C[C@]4(C)CC[C@](C)(C3)N4)nn2)cc1F` [SMSM 9], for which the IC50 is 1950 nM. Consider `CNC(=O)/C=C/c1ccc(-c2ccc(N(C)[C@H]3C[C@]4(C)CC[C@](C)(C3)N4)nn2)c(O)c1` [SMSM 10, (E)-3-(4-(6-(((1R,3s,5S)-1,5-dimethyl-8-azabicyclo[3.2.1]octan-3-yl)(methyl)amino)pyridazin-3-yl)-3-hydroxyphenyl)-N-methylacrylamide], for which the IC50 was 1580 nM. To `CNC(=O)/C=C/c1cc(O)c(-c2ccc(N(C3CC3)[C@H]3C[C@]4(C)CC[C@](C)(C3)N4)nn2)cc1F` [SMSM 11, (E)-3-(4-(6-(cyclopropyl((1R,3s,5 S)-1,5-dimethyl-8-azabicyclo[3.2.1]octan-3-yl)amino)pyridazin-3-yl)-2-fluoro-5-hydroxyphenyl)-N-methylacrylamide] belongs 1390 nM.

Regarding `CN(c1ccc(-c2ccc(/C=C/c3nnn[nH]3)cc2O)nn1)[C@H]1C[C@]2(C)CC[C@](C)(C1)N2` [SMSM 12, 5-((E)-2-(1H-tetrazol-5-yl)vinyl)-2-(6-(((1R,3s,5S)-1,5-dimethyl-8-azabicyclo[3.2.1]octan-3-yl)(methyl)amino)pyridazin-3-yl)phenol], the IC50 is > 1000 nM. With `CNC(=O)/C=C/c1cc(O)c(-c2ccc(N(C3CC3)[C@H]3C[C@]4(C)CCC[C@](C)(C3)N4)nn2)cc1F` [SMSM 13, (E)-3-(4-(6-(cyclopropyl((lR,3s,5 S)-1,5-dimethyl-9-azabicyclo[3.3.1]nonan-3-yl)amino)pyridazin-3-yl)-2-fluoro-5-hydroxyphenyl)-N-methylacrylamide], the IC50 is > 1000 nM. On to `CNC(=O)/C=C/c1ccc(-c2ccc(N(C)[C@H]3C[C@]4(C)CCC[C@](C)(C3)N4)nn2)c(O)c1` [SMSM 14, (E)-3-(4-(6-(((1R,3s,5S)-1,5-dimethyl-9-azabicyclo[3.3.1]nonan-3-yl)(methyl)amino)pyridazin-3-yl)-3-hydroxyphenyl)-N-methylacrylamide], for which the IC50 stood at 1.6 nM.

With `CNC(=O)/C=C/c1cc(O)c(-c2ccc(N(C)[C@H]3C[C@]4(C)CCC[C@](C)(C3)N4)nn2)cc1F` [SMSM 15, (E)-3-(4-(6-(((1R,3s,5S)-1,5-dimethyl-9-azabicyclo[3.3.1]nonan-3-yl)(methyl)amino)pyridazin-3-yl)-2-fluoro-5-hydroxyphenyl)-N-methylacrylamide], the IC50 amounted to 0.7 nM. On to `CNC(=O)/C=C/c1ccc(-c2ccc(N(C)C3CC(C)(C)NC(C)(C)C3)nn2)c(O)c1` [SMSM 16, (E)-3-(3-hydroxy-4-(6-(methyl(2,2,6,6-tetramethylpiperidin-4-yl)amino)pyridazin-3-yl)phenyl)-N-methylacrylamide], for which the IC50 was found to be 0.2 nM.

Take `CNC(=O)/C=C/c1cc(O)c(-c2ccc(N3CCC(N)CC3)nn2)cc1F` [SMSM 17, (E)-3-(4-(6-(4-aminopiperidin-1-yl)pyridazin-3-yl)-2-fluoro-5-hydroxyphenyl)-N-methylacrylamide]: the midpoint of inhibition, the IC50, lay at 0.3 nM.

For `CNC(=O)/C=C/c1ccc(-c2ccc(N3CCC(N)CC3)nn2)c(O)c1` [SMSM 18, (E)-3-(4-(6-(4-aminopiperidin-1-yl)pyridazin-3-yl)-3-hydroxyphenyl)-N-methylacrylamide], the IC50 is > 1000 nM. Regarding `CN(C)C(=O)/C=C/c1ccc(-c2ccc(O[C@@H]3C[C@H]4CCC[C@@H](C3)N4)nn2)c(O)c1` [SMSM 19], the half-inhibitory concentration (IC50) is > 1000 nM. For `CNC(=O)/C=C/c1ccc(-c2ccc(O[C@@H]3C[C@H]4CCC[C@@H](C3)N4)nn2)c(O)c1` [SMSM 20, (E)-3-(4-(6-(((1R,3s,5S)-9-azabicyclo[3.3.1]nonan-3-yl)ypoxy)pyridazin-3-yl)-3-hydroxyphenyl)-N-methylacrylamide] the value was 793 nM; for `CNC(=O)/C=C/c1ccc(-c2ccc(O[C@H]3C[C@H]4C[C@@H]3CN4)nn2)c(O)c1` [SMSM 21], 369 nM; for `CNC(=O)/C=C/c1ccc(-c2ccc(O[C@@H]3C[C@@H]4C[C@H]3CN4)nn2)c(O)c1` [SMSM 22, (E)-3-(4-(6-(((1S,4S,5R)-2-azabicyclo[2.2.1]heptan-5-yl)oxy)pyridazin-3-yl)-3-hydroxyphenyl)-N-methylacrylamide], 330 nM. In turn, `CNC(=O)/C=C/c1ccc(-c2ccc(S[C@@H]3C[C@H]4CC[C@@H](C3)N4)nn2)c(O)c1` [SMSM 23, (E)-3-(4-(6-(((1R,3s,5S)-8-azabicyclo[3.2.1]octan-3-yl)thio)pyridazin-3-yl)-3-hydroxyphenyl)-N-methylacrylamide] returned an IC50 of 201 nM.
